The values that follow come from the supplement of paper PMC11616607.

The test system of one assay is COV362. Put plainly: drug sensitivity score (DSS) from 5-point dose-response viability curve (DSS (area-under-curve based score)); higher = more sensitive (stronger growth inhibition or killing); extreme values may be limits of the assay. The following applies: exposure time: 72 h; concentration range: 5 concentrations over 10,000-fold range. In a few lines:
(§1)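 Ovarian cancer and normal ovarian cell lines were tested in 384-well plates. Drugs were acoustically dispensed (Echo 550) in DMSO or water at five concentrations spanning a 10,000-fold range, then 1,500 cells per well were added and incubated 3 days at 37°C, 5% CO2. Viability was read by CellTiter-Glo luminescence on a PHERAstar FS. Drug sensitivity score was derived per cell line and drug with Breeze software; higher means more sensitive, zero means no response.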
`Cc1c(Cn2c(C)nc3c(C(=O)O)cc(N4CCOCC4)cc32)cccc1C(F)(F)F` returned a drug sensitivity score of 0.
Regarding `Cc1ccc(C(=O)N(CCCN)[C@@H](c2oc3cc(Cl)ccc3c(=O)c2Cc2ccccc2)C(C)C)cc1`, the drug sensitivity score is 0.4.
Consider `Cc1cccc(CC(=O)N2CCc3c2ccc(-c2cn(C)c4ncnc(N)c24)c3F)n1`, for which the drug sensitivity score is 0.
On to `Cc1nc(Nc2n[nH]c3c2CN(C(=O)N[C@H](CN(C)C)c2ccccc2)C3(C)C)c2sccc2n1`, for which the drug sensitivity score stood at 7.3.
For the compound `Cc1ncc(Cl)cc1NCc1ccc(C(=O)N[C@@H](CC2CCCC2)C(=O)NC2CC2)s1`, the drug sensitivity score came to 0.
`Cn1cc(-c2ccc(F)c(C(F)(F)F)c2)nc1C1CCN(c2ncnc3[nH]ncc23)CC1` yielded a drug sensitivity score of 0.
Compound `Cn1cc(C2=Nc3cc(NC(=O)C(N)C4CCCCC4)cc4c3C2=CNNC4=O)cn1` (stereo not drawn) gave a drug sensitivity score of 5.2.
Take `N#Cc1ccc(COC[C@H]2O[C@@H](n3c(NCc4ccc(Cl)c(Cl)c4)nc4c(N)ncnc43)[C@H](O)[C@@H]2O)cc1`: the drug sensitivity score is 0.5.
Same read-out and setting: the figure for `NCC(=O)Nc1ccc(-n2nc(C(F)(F)F)cc2-c2ccc3c(ccc4ccccc43)c2)cc1` is 0; for `NC[C@@](O)(c1ccc(Cl)cc1)c1ccc(-c2cn[nH]c2)cc1` it is 0.
`Nc1nccc(-c2c(-c3ccc(F)cc3)ncn2C2CCCCC2)n1` gave a drug sensitivity score of 0.
For the compound `Nc1ncnc2c1c(COc1cccc(Cl)c1)nn2C1CCOCC1`, the drug sensitivity score turned out to be 0.
With `O=C(NOC[C@H](O)CO)c1ccc(F)c(F)c1Nc1ccc(I)cc1F`, the drug sensitivity score was 2.4.
The same measure, in the same setting: as for `O=C(Nc1ccc2[nH]nc(-c3ccncc3)c2c1)[C@@H]1CCN(CC(=O)N2CCN(c3ccc(-c4ncccn4)cc3)CC2)C1`, the figure is 4.9; as for `O=C(O)c1ccc(-c2c[nH]c3ncc(-c4ccccc4)cc23)cc1C1CCCC1`, 0.1.
`O=C(O)c1ccc(CN2CCC(CN[C@@H]3C[C@H]3c3ccccc3)CC2)cc1`: the drug sensitivity score amounted to 0.

The test system of a further assay is HOSE2C. Described as above. As to conditions: exposure time: 72 h; concentration range: 5 concentrations over 10,000-fold range. The gist of the method: as §1
Regarding `CC(C)(C)C[C@@H]1N[C@@H](C(=O)N[C@H]2CC[C@H](O)CC2)[C@H](c2cccc(Cl)c2F)[C@]12C(=O)Nc1cc(Cl)ccc12`, the drug sensitivity score was determined as 16.9.
Consider `CC(C)Oc1ccc(C(=O)N[C@H](CNC(=O)CN(C)C)Cc2ccc(-c3cn4cccc([C@H](C)O)c4n3)cc2)cc1Cl`, for which the drug sensitivity score came out at 11.1.
The compound `CC[C@@H]1[C@H](F)C(=O)N[C@@H]1COc1nccc2cc(C(N)=O)c(OC)cc12` gave a drug sensitivity score of 0.
As for `CCc1cncnc1N1CCN(Cc2nc3ccc(C(F)(F)F)cc3[nH]2)CC1`, the drug sensitivity score came out at 0.
Same read-out and setting: as for `CCn1c(-c2nonc2N)nc2cnc(Oc3cccc(NC(=O)c4ccc(OCCN5CCOCC5)cc4)c3)cc21`, the figure is 6.
`CN(C)CC#Cc1ccc(OCCCc2sc(N3CCc4cccc(C(=O)Nc5nc6ccccc6s5)c4C3)nc2C(=O)O)c(F)c1` came in with a drug sensitivity score of 6.2.
For the compound `CN(c1ncccc1CNc1nc(Nc2ccc3c(c2)CC(=O)N3)ncc1C(F)(F)F)S(C)(=O)=O`, the drug sensitivity score was 3.9.
The compound `CNC(=O)c1ccc(C)c(-n2c(C)cc(OCc3ccc(F)cc3F)c(Br)c2=O)c1` had a drug sensitivity score of 0.
Compound `CNS(=O)(=O)Nc1nccc(Cc2c(C)c3ccc(Oc4ncccn4)cc3oc2=O)c1F` displayed a drug sensitivity score of 0.
Compound `CNc1ncc2cc(-c3cc(NC(=O)NCCC(C)(C)C)c(F)cc3C)c(C)nc2n1` came in with a drug sensitivity score of 5.
Compound `CO[C@@H](C)Cn1c(=O)n(C)c2cnc3ccc(-c4cncc(C(C)(C)O)c4)cc3c21` returned a drug sensitivity score of 9.9.
On to `COc1ccc(Cn2ccc3ccc(C(=O)NO)cc32)cc1`, for which the drug sensitivity score is 1.5.
`C[C@@H](Oc1ccc2[nH]nc(/C=C/c3cnn(CCO)c3)c2c1)c1c(Cl)cncc1Cl` displayed a drug sensitivity score of 22.7.
`C[C@@H]1CN(CC(=O)Nc2ccc3c(c2)Cc2cccc(-c4cc(=O)cc(N5CCOCC5)o4)c2S3)C[C@H](C)O1` gave a drug sensitivity score of 0.
Take `C[C@H]1C[C@@H](n2c(Nc3ccc(OC(F)(F)F)cc3)nc3cc(CCC(=O)O)ccc32)CC(C)(C)C1`: the drug sensitivity score came out at 0.
`Cc1c(-c2c(-c3ccc(F)o3)sc3ncnc(O[C@H](Cc4ccccc4OCc4ccnn4CC(F)(F)F)C(=O)O)c23)ccc(OCCN2CCN(C)CC2)c1Cl` registered a drug sensitivity score of 0.
`Cc1c(Cn2c(C)nc3c(C(=O)O)cc(N4CCOCC4)cc32)cccc1C(F)(F)F` yielded a drug sensitivity score of 0.
`Cc1ccc(C(=O)N(CCCN)[C@@H](c2oc3cc(Cl)ccc3c(=O)c2Cc2ccccc2)C(C)C)cc1` gave a drug sensitivity score of 9.2.
Consider `Cc1cccc(CC(=O)N2CCc3c2ccc(-c2cn(C)c4ncnc(N)c24)c3F)n1`, for which the drug sensitivity score came out at 0.
On to `Cc1nc(Nc2n[nH]c3c2CN(C(=O)N[C@H](CN(C)C)c2ccccc2)C3(C)C)c2sccc2n1`, for which the drug sensitivity score was 7.5.
For `Cc1ncc(Cl)cc1NCc1ccc(C(=O)N[C@@H](CC2CCCC2)C(=O)NC2CC2)s1`, the drug sensitivity score was 0.
Compound `Cn1cc(-c2ccc(F)c(C(F)(F)F)c2)nc1C1CCN(c2ncnc3[nH]ncc23)CC1` yielded a drug sensitivity score of 3.2.
The compound `Cn1cc(C2=Nc3cc(NC(=O)C(N)C4CCCCC4)cc4c3C2=CNNC4=O)cn1` (stereo not drawn) displayed a drug sensitivity score of 18.3.
Compound `N#Cc1ccc(COC[C@H]2O[C@@H](n3c(NCc4ccc(Cl)c(Cl)c4)nc4c(N)ncnc43)[C@H](O)[C@@H]2O)cc1` yielded a drug sensitivity score of 5.6.
For the compound `NCC(=O)Nc1ccc(-n2nc(C(F)(F)F)cc2-c2ccc3c(ccc4ccccc43)c2)cc1`, the drug sensitivity score was 8.9.
In the case of `NC[C@@](O)(c1ccc(Cl)cc1)c1ccc(-c2cn[nH]c2)cc1`, the drug sensitivity score was 6.1.
On the same count and under the same terms, as for `Nc1nccc(-c2c(-c3ccc(F)cc3)ncn2C2CCCCC2)n1`, the figure is 0.9.
In the case of `Nc1ncnc2c1c(COc1cccc(Cl)c1)nn2C1CCOCC1`, the drug sensitivity score was 0.
`O=C(NOC[C@H](O)CO)c1ccc(F)c(F)c1Nc1ccc(I)cc1F` had a drug sensitivity score of 0.4.
On the same count and under the same terms, as for `O=C(Nc1ccc2[nH]nc(-c3ccncc3)c2c1)[C@@H]1CCN(CC(=O)N2CCN(c3ccc(-c4ncccn4)cc3)CC2)C1`, the figure is 1.1; as for `O=C(O)c1ccc(-c2c[nH]c3ncc(-c4ccccc4)cc23)cc1C1CCCC1`, 1.2; as for `O=C(O)c1ccc(CN2CCC(CN[C@@H]3C[C@H]3c3ccccc3)CC2)cc1`, 0.
